Reference: publication PMC11480954, “Molecular determinants of resurgent sodium currents mediated by Navβ4 peptide and A-type FHFs” (Frontiers in Molecular Neuroscience, 2024)

What was measured:
Nav1.8 [1] = conditions: ref Xiao et al., 2022; cited from earlier work
From the text: Next, we investigated if FHF4A, another INaR mediator reported recently ([White et al., 2019]; [Xiao et al., 2022]), shares the receptor site in VGSCs with Navβ4 peptide. […] They consist of a long N-terminus, an FGF-like β-trefoil core, and a short C-terminus ([Goldfarb, 2005]). They display an intrinsic capability to generate INaR, to a varying extent, in Nav1.8 and Nav1.9.

Nav1.8 [2] = conditions: n = 6, ref Xiao et al., 2022; cited from earlier work
From the text: Increased INaR may result from destabilizing fast inactivation or increasing “window currents” of VGSCs ([Xiao et al., 2019]).

Nav1.8 N390K = experiment: Gating properties, Nav1.8 mutant N390K; format: cell-based, human; conditions: 1 mM FHF4A peptide
Description: HEK293 cells and ND7/23 cells were grown under standard tissue culture conditions (5% CO2 and 37°C) in DMEM supplemented with 10% FBS, 1% penicillin and 1% streptomycin. Using Invitrogen Lipofectamine 2000, human Nav1.7 R1599P (rpNav1.7) and the mutant constructs were transiently co-transfected with Navβ1 and Navβ2 into HEK293 cells. The constructs human Nav1.8 and mutants were transiently co-transfected with FHF2B or FHF4A into ND7/23 cells. The lipofectamine-DNA mixture was added to the cell culture medium and left for 3 h after which the cells were washed with fresh medium. Cells with green fluorescent protein fluorescence were selected for whole-cell patch-clamp recordings 36–72 h after transfection.
Whole-cell voltage-clamp recordings were performed at room temperature (~21°C) using an EPC-10 amplifier and the Pulse program (HEKA Electronics). Fire-polished electrodes (0.7–1.0 MΩ) were fabricated from 1.7 mm capillary glass using a P-97 puller (Sutter Instruments), and the tips were coated with sticky wax (KerrLab) to reduce electrode capacitance and enable increased series resistance compensation. The pipette solution contained (in mM) 140 CsF, 1.1 EGTA, 10 NaCl, and 10 HEPES, pH 7.3. The bathing solution was (in mM) 130 mM NaCl, 30 mM TEA chloride, 1 mM MgCl2, 3 mM KCl, 1 mM CaCl2, 10 mM HEPES, and 10 mM d-glucose, pH 7.3 (adjusted with NaOH). […] The offset potential was zeroed before contacting the cell. After establishing the whole-cell recording configuration, the resting potential was held at −120 or −100 mV for 5 min to allow adequate equilibration between the micropipette solution and the cell interior. Linear leak subtraction, based on resistance estimates from four to five hyperpolarizing pulses applied before the depolarizing test potential, was used for all voltage clamp recordings. Membrane currents were usually filtered at 5 kHz and sampled at 20 kHz. […] Voltage errors were minimized using 80–95% series resistance compensation, and the capacitance artifact was canceled using the computer-controlled circuitry of the patch clamp amplifier. […] The concentration-dependent curves were fitted to a hill equation: Y = Bottom + (Top-Bottom)/(1 + 10^((LogEC50-X)*HillSlope)).
Families of sodium currents were induced by 50-ms depolarizing steps to various potentials ranging from −120 (or −100) to +40 mV in 5-mV increments. The conductance was calculated using the equation G(Nav) = I/(V - Vrev) in which I, V, and Vrev represent inward current value, membrane potential, and reversal potential, respectively. […]

[3] = target: T1, human Nav1.7 R1599P (rpNav1.7) (Homo sapiens, UniProt Q15858, R1610P); experiment: Long-term inactivation of rpNav1.7; format: cell-based
T1 construct: expressed in transfected cells; host or cells: HEK293 cells, transient transfection with pcDNA3.1 construct
T1 sequence (Q15858 1-1977 isoform Q15858-3 R1599P): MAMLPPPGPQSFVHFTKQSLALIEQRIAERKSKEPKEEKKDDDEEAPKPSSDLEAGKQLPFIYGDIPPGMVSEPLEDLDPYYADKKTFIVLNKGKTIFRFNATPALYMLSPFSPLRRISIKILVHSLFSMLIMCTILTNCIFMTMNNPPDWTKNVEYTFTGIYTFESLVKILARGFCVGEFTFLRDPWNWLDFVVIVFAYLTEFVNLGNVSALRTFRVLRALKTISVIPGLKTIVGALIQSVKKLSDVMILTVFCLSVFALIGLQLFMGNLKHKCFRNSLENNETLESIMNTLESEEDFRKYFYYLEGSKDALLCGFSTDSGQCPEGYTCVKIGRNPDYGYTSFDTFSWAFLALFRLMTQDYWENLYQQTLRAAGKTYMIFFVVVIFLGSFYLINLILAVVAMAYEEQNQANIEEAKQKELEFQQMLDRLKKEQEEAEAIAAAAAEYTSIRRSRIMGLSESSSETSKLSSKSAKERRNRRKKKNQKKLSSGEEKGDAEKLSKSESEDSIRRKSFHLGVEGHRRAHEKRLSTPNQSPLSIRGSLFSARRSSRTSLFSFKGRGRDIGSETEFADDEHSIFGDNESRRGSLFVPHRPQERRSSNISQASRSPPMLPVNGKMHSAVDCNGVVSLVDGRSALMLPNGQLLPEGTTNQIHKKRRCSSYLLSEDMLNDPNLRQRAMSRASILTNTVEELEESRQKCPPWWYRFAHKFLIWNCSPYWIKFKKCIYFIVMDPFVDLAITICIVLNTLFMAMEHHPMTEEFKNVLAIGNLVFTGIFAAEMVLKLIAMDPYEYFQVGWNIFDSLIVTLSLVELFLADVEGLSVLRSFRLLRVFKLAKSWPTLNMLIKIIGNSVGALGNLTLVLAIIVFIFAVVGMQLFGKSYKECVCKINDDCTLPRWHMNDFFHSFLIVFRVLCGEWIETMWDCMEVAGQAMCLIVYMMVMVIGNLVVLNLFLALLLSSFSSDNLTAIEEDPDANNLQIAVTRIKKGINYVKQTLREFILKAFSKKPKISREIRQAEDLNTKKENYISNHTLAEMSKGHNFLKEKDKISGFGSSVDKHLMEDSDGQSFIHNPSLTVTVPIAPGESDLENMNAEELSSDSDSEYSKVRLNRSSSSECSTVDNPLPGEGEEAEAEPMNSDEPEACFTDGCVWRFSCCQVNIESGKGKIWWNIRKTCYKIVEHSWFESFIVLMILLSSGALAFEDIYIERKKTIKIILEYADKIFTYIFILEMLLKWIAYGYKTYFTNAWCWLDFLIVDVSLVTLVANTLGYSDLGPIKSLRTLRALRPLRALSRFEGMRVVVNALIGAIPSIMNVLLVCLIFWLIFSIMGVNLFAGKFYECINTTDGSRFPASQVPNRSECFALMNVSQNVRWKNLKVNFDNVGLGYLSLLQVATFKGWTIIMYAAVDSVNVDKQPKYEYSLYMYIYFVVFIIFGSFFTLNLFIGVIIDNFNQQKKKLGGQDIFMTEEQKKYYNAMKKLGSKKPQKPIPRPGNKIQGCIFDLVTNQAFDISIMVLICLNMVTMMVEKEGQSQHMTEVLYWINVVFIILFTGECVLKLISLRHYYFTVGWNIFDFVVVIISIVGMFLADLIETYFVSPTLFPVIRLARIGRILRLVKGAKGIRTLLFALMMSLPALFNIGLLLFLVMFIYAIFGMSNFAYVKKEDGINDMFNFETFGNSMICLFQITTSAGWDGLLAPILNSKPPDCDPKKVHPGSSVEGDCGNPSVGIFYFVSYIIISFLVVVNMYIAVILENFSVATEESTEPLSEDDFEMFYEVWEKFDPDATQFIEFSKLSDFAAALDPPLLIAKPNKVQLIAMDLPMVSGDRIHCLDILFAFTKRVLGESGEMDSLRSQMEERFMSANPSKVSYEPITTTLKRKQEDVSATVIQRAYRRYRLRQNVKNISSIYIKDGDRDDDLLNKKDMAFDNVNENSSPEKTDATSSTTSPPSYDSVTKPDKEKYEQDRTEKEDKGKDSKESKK
T1 sequence (Q07699 19-218 partner): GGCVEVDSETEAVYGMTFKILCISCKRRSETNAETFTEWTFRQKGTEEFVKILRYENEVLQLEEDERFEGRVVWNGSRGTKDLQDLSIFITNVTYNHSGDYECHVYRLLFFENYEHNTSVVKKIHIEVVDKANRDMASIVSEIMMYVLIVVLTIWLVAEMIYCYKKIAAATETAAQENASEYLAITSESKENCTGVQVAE
T1 sequence (O60939 30-215 partner): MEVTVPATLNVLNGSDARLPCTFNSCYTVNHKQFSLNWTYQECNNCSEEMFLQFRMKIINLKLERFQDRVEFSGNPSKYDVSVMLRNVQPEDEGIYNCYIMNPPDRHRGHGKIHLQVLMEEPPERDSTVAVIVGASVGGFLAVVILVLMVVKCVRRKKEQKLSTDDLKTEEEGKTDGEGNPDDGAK

Which results are given for “AAAIASGLIRQKRQAREQHW [FHF4A peptide, synthetic 20-residue peptide from FHF4A A2 – W21]”?
Nav1.8 INaR reconstitution by FHF4A A2 – W21 peptide (Nav1.8 [1]): could reconstitute the Nav1.8 INaR mediated by full-length FHF4A; FHF4A peptide mediated Nav1.8 INaR without FHF2B (control) (Nav1.8 [2]): 2.5% ± 0.4%; V1/2 of steady-state inactivation, N390K vs Nav1.8 (Nav1.8 N390K): None of four lysine-mutations significantly changed the V1/2 value of steady-state inactivation; Activation (V1/2), N390K (Nav1.8 N390K; + FHF2B, ND7/23, n = 7): −9.7 ± 1.8 (7) mV; Inactivation (V1/2), N390K (Nav1.8 N390K; + FHF2B, ND7/23, n = 7): −33.5 ± 1.0 (7) mV; INaP, N390K (Nav1.8 N390K; end of 50-ms pulse of +10 mV, normalized to peak transient current, n = 7, *p < 0.05): 5.6 ± 2.2^* (7) %; effect on long-term inactivation of rpNav1.7 ([3]; 1 mM FHF4A peptide, HEK293): evidently enhanced accumulation of long-term inactivation of rpNav1.7; fraction of the current elicited at the 6th pulse ([3]; rpNav1.7, HEK293, 1 mM, six 16-ms pulses of −10 mV from −100 mV, 40-ms interpulse, scramble n = 6, FHF4A peptide n = 5, p < 0.0001): 0.21 ± 0.03
